# Source: EP4722228A1, “NEW COMPOUND TARGETING MUSK AND USE THEREOF” (The University of Tokyo, priority 2023, dated 2024)
# Numbered stars: 1 amine (or outer) side, 2 acyl side, 3 side chain; on linkers, the order of the positions; unused ones are H or OH. Bridge positions count the residues as written; N and C are the ends. Square brackets hold non-standard residues; d marks the D form. Peptide text beside a SMILES is read from it. I, II: the chains in the order shown. X1 = O=C(CCN1C(=O)CC([*:1])C1=O)NCCOCCOCCOCCOCCOCCOCCOCCOCCOCCOCCOCCNC(=O)CCN1C(=O)CC([*:2])C1=O; X2 = O=C(CCN1C(=O)CC([*:1])C1=O)NCCCOCCOCCOCCCNC(=O)CCN1C(=O)CC([*:2])C1=O
# Molecular target: T1, human MuSK (Homo sapiens, UniProt O15146)
# T1 construct: DNA corresponding to the extracellular portion (amino acids 1-493) was amplified by a PCR method; made in house; host or cells: Expi293F cells
# T1 sequence (O15146 24-493): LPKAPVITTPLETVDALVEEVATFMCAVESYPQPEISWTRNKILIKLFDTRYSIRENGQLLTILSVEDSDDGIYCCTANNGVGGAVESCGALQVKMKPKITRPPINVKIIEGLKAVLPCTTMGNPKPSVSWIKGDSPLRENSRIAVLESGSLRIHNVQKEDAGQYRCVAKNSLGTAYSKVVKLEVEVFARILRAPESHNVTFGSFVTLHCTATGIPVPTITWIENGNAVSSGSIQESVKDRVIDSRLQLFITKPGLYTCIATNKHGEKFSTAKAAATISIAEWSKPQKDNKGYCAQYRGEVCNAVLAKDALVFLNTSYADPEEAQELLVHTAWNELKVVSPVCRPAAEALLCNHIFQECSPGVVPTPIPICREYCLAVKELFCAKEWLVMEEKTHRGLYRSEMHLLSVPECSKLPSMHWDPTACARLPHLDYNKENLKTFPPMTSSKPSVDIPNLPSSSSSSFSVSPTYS
# Assay: SPR binding activity test to human MuSK (Biacore)
# Conditions: human MuSK, peptide homodimers
# Method: The human MuSK protein (extracellular portion) was prepared as a recombinant protein as follows. Using a Flexi clone (FXC31275, Promega Corporation) encoding Human MuSK isoform 1 precursor (NCBI Reference Sequence: NP_005583.1) as a template, DNA corresponding to the extracellular portion (amino acids 1-493) was amplified by a PCR method. XhoI and EcoRI restriction enzyme recognition sequences were added to both the 5' and 3' ends of the amplified DNA sequence, and these were used for insertion into the multiple cloning site of a pCAG-Neo hIgG1-Fc plasmid (Fujifilm Wako Pure Chemical Corporation). This plasmid (pCAG-Neo hMuSK-Fc) enables expression of a chimeric protein of the secretory human MuSK extracellular portion and human IgG1 Fc (hMuSK-Fc; molecular weight of approximately 200 kDa) in animal cells. In practice, ExpiFectamine 293 reagent (Invitrogen) was used to transfect the pCAG-Neo hMuSK-Fc plasmid into Expi293F cells (Invitrogen), and shaking culture was carried out (for 6 days) in an incubator containing 8% CO2. Next, the culture supernatant was collected, centrifuged, and sterilized by filtration through a 0.22 µm filter. The obtained culture supernatant was subjected to Protein G purification, and finally, a purified hMuSK-Fc sample with 99.96% purity (AKTA-FPLC analysis) was obtained.
# The strength of binding between MuSK and the cyclic peptides was evaluated by quantitatively measuring the binding kinetics (binding affinity (dissociation constant) KD) of the cyclic peptides to MuSK immobilized on a sensor chip via an Fc tag, using surface plasmon resonance (SPR).
# According to the standard immobilization protocol provided by the manufacturer, Fc-tagged human/mouse/rat MuSK was immobilized on a Protein G chip or a Protein A chip (Cytiva). A running buffer for the monomer/dimer peptides contained 0.010 M phosphate, 0.14 M NaCl, 0.0027 M KCl, 0.05% (v/v) Tween 20, and 0.1% (v/v) DMSO. A running buffer for the monomer/dimer U-bodies contained 0.010 M phosphate, 0.14 M NaCl, 0.0027 M KCl, and 0.05% (v/v) Tween 20. A series of concentrations of each monomer peptide, dimer peptide, monomer U-body, and dimer U-body was injected as analytes. A 1:1 binding fitting analysis was applied using Biacore evaluation software, and ka, kd, and KD values were determined.
# Fc-tagged human MuSK was prepared according to the procedure described in Example 1(1). In addition, Fc-tagged mouse MuSK was used by expressing a nucleotide sequence encoding the Fc-tagged mouse MuSK extracellular domain (SEQ ID NO: 34). In addition, Fc-tagged rat MuSK was used as a chimeric protein of rat MuSK and an Fc protein, namely, Recombinant Rat MuSK Fc Chimera Protein (catalog number: 9847-MK-050, R&D Systems).
# The affinity of the U-bodies and their complexes obtained as described above for MuSK of human, rat, and mouse was evaluated (binding activity test). The test was carried out according to the procedure described in Example 1(3). However, for the complexes of U-bodies, surface plasmon resonance (SPR) analysis was carried out using a Biacore 8K (Cytiva).
Compound,koff,kon
"CC[C@H](C)[C@@H]1NC(=O)[C@H](CC(N)=O)NC(=O)[C@H](C(C)C)NC(=O)[C@H](Cc2ccc(O)cc2)NC(=O)CNC(=O)[C@@H]2CCCN2C(=O)[C@H](CCC(N)=O)NC(=O)[C@H](CC(C)C)NC(=O)[C@H](Cc2ccc(O)cc2)NC(=O)[C@H](Cc2c[nH]c3ccccc23)NC(=O)[C@@H](Cc2ccc(O)cc2)NC(=O)CSC[C@@H](C(=O)N[C@@H](CSC2CC(=O)N(CCC(=O)NCCOCCOCCOCCOCCOCCOCCOCCOCCOCCOCCOCCNC(=O)CCN3C(=O)CC(SC[C@H](NC(=O)[C@@H]4CSCC(=O)N[C@H](Cc5ccc(O)cc5)C(=O)N[C@@H](Cc5c[nH]c6ccccc56)C(=O)N[C@@H](Cc5ccc(O)cc5)C(=O)N[C@@H](CC(C)C)C(=O)N[C@@H](CCC(N)=O)C(=O)N5CCC[C@H]5C(=O)NCC(=O)N[C@@H](Cc5ccc(O)cc5)C(=O)N[C@@H](C(C)C)C(=O)N[C@@H](CC(N)=O)C(=O)N[C@@H]([C@@H](C)CC)C(=O)N[C@@H](C(C)C)C(=O)N[C@@H]([C@@H](C)O)C(=O)N[C@@H](CO)C(=O)N[C@@H](Cc5ccc(O)cc5)C(=O)N[C@@H](Cc5c[nH]cn5)C(=O)N4)C(N)=O)C3=O)C2=O)C(N)=O)NC(=O)[C@H](Cc2c[nH]cn2)NC(=O)[C@H](Cc2ccc(O)cc2)NC(=O)[C@H](CO)NC(=O)[C@H]([C@@H](C)O)NC(=O)[C@H](C(C)C)NC1=O (stereo partly shown) [MuSK9 PEG11 dimer] (I: {CH2CO}-[dY]WYLQPGYVNIVTSYHCC-NH2 / II: {CH2CO}-[dY]WYLQPGYVNIVTSYHCC-NH2; linker I:18-II:18 via X1; thioether I:N-I:17, II:N-II:17)",0.0017 s⁻¹,440000 M⁻¹ s⁻¹
I: Ac-C[dY]LPEFSWPESFVLFLRQRQRQLGRGAE-NH2 / II: Ac-C[dY]LPEFSWPESFVLFLRQRQRQLGRGAE-NH2 (linker I:1-II:1 via X1) [MuSK1Ac PEG11 dimer],0.001 s⁻¹,660000 M⁻¹ s⁻¹
I: Ac-C[dY]LPEFSWPESFVLFLRQRQRQLGRGAE-NH2 / II: Ac-C[dY]LPEFSWPESFVLFLRQRQRQLGRGAE-NH2 (linker I:1-II:1 via X2) [MuSK1Ac PEG3 dimer],0.0013 s⁻¹,300000 M⁻¹ s⁻¹
I: Ac-[dY]LPEFSWPESFVLFLRQRQRQLGRGAEC-NH2 / II: Ac-[dY]LPEFSWPESFVLFLRQRQRQLGRGAEC-NH2 (linker I:28-II:28 via X1) [MuSK1Ac Term PEG11 dimer],0.0018 s⁻¹,520000 M⁻¹ s⁻¹
I: Ac-[dY]LPEFSWPESFVLFLRQRQRQLGRGAEC-NH2 / II: Ac-[dY]LPEFSWPESFVLFLRQRQRQLGRGAEC-NH2 (linker I:28-II:28 via X2) [MuSK1Ac Term PEG3 dimer],0.0012 s⁻¹,200000 M⁻¹ s⁻¹

# Same assay, conditions: human MuSK, peptide homodimers, read-out: Kd
row,Compound,Kd
1,"CC[C@H](C)[C@@H]1NC(=O)[C@H](CC(N)=O)NC(=O)[C@H](C(C)C)NC(=O)[C@H](Cc2ccc(O)cc2)NC(=O)CNC(=O)[C@@H]2CCCN2C(=O)[C@H](CCC(N)=O)NC(=O)[C@H](CC(C)C)NC(=O)[C@H](Cc2ccc(O)cc2)NC(=O)[C@H](Cc2c[nH]c3ccccc23)NC(=O)[C@@H](Cc2ccc(O)cc2)NC(=O)CSC[C@@H](C(=O)N[C@@H](CSC2CC(=O)N(CCC(=O)NCCOCCOCCOCCOCCOCCOCCOCCOCCOCCOCCOCCNC(=O)CCN3C(=O)CC(SC[C@H](NC(=O)[C@@H]4CSCC(=O)N[C@H](Cc5ccc(O)cc5)C(=O)N[C@@H](Cc5c[nH]c6ccccc56)C(=O)N[C@@H](Cc5ccc(O)cc5)C(=O)N[C@@H](CC(C)C)C(=O)N[C@@H](CCC(N)=O)C(=O)N5CCC[C@H]5C(=O)NCC(=O)N[C@@H](Cc5ccc(O)cc5)C(=O)N[C@@H](C(C)C)C(=O)N[C@@H](CC(N)=O)C(=O)N[C@@H]([C@@H](C)CC)C(=O)N[C@@H](C(C)C)C(=O)N[C@@H]([C@@H](C)O)C(=O)N[C@@H](CO)C(=O)N[C@@H](Cc5ccc(O)cc5)C(=O)N[C@@H](Cc5c[nH]cn5)C(=O)N4)C(N)=O)C3=O)C2=O)C(N)=O)NC(=O)[C@H](Cc2c[nH]cn2)NC(=O)[C@H](Cc2ccc(O)cc2)NC(=O)[C@H](CO)NC(=O)[C@H]([C@@H](C)O)NC(=O)[C@H](C(C)C)NC1=O (stereo partly shown) [MuSK9 PEG11 dimer] (I: {CH2CO}-[dY]WYLQPGYVNIVTSYHCC-NH2 / II: {CH2CO}-[dY]WYLQPGYVNIVTSYHCC-NH2; linker I:18-II:18 via X1; thioether I:N-I:17, II:N-II:17)",3.9 nM

# System: C2C12 myotubes (Agrin-induced AChR clusters)
# Assay: Agrin-induced AChR clusters in myotubes with tyrosine kinase inhibitors
# Format: cell-based, mouse
# Conditions: 10 pM recombinant rat agrin, inhibitor (3 nM) added simultaneously, 20 hours
# Excerpt: The mouse myoblast-derived cell line C2C12 (CRL-1772) was purchased from the American Type Culture Collection and used. For subculture, Dulbecco's Modified Eagle Medium (DMEM, high glucose, GlutaMAX supplement, pyruvate; GIBCO) supplemented with 20% fetal bovine serum (FBS; GIBCO) was used. For passage, after the culture medium was removed by suction, adherent cells were washed with phosphate buffered saline (PBS(-)), and HBSS (GIBCO) containing no Mg^2+ and Ca^2+ and containing 0.25% trypsin and 1 mM ethylenediaminetetraacetic acid was added, and the mixture was reacted in a CO2 incubator (37°C, 5% CO2) for 5 minutes. The detached cells were collected and then centrifuged at 1000 rpm at 4°C for 5 minutes (Sorvall X4R Pro, Thermo Fisher Scientific Inc.). After the supernatant was removed by suction, the cells were suspended in fresh culture medium, and 100 µL was seeded into a 96-well plate (BioCoat Collagen I 96-well Black/Clear plate, Corning Inc.) and cultured in a CO2 incubator (37°C, 5% CO2) until reaching confluence, typically within 72 hours. Subsequently, the culture medium was removed and the first medium change was performed with DMEM containing 2% horse serum (GIBCO) for induction of myotube cell differentiation.
# A differentiation medium supplemented with an appropriate amount of the homodimer of the cyclic peptide MuSK7 (MuSK7 PEG11 dimer) was prepared in advance in a 96-well plate (Nunclon Δ Surface, 167008, Nunc), and used at 100 µL/well at the time of the second medium change in the process of inducing differentiation into myotubes. 20 hours after addition of the homodimer of the cyclic peptide MuSK7, the medium was removed, the cells were washed with PBS(-), and then fixed at room temperature for 15 minutes with PBS(-) containing 4% formaldehyde. After washing several times with 1% BSA-PBS(-), fluorescently labeled α-bungarotoxin (α-Btx, Alexa Fluor 488 conjugate; Invitrogen) was added to 1% BSA-PBS(-) at a final concentration of 100 nM, and after adding this to the wells, the mixture was allowed to stand at room temperature under a light-shielded condition for 30 minutes. After washing the cells several times with 1% BSA-PBS(-), 100 µL of PBS(-) was added to each well, and fluorescence observation was performed using a fluorescence imaging device. For observation of fluorescently labeled AChR clusters, an EVOS M7000 imaging system (Thermo Fisher Scientific Inc.) was used. During fluorescence image observation, a 10× objective lens was used, and tiff images of an area equivalent to 1 mm^2 were obtained. […] The average number of AChR clusters counted from the three tiff images derived from the same well was calculated and drawn on a graph.
# MuSK inhibitor candidates were searched in the KinaseNET database (http://www.kinasenet.ca/) published as an open resource by Kinexus Bioinformatics Corporation (Canada), and three tyrosine kinase inhibitors (AST-487, Foretinib, and Sorafenib) were identified. Next, groups were prepared in which 10 pM recombinant rat agrin protein (550-AG, R&D Systems) derived from C2C12 myotubes was added alone, or in which each tyrosine kinase inhibitor (3 nM) was added simultaneously, and detection and observation of Agrin-induced AChR clusters were performed 20 hours after compound addition (five types, Crizotinib, Linifanib, AST-1306, Dovitinib, and BMS-754807, were used as non-MuSK inhibitory tyrosine kinase inhibitors).
row,Compound,number of AChR clusters
1,C=CC(=O)Nc1ccc2ncnc(Nc3ccc(OCc4cccc(F)c4)c(Cl)c3)c2c1 [AST-1306],comparable to that in the negative control group (DMSO alone)
2,C[C@@]1(C(=O)Nc2ccc(F)nc2)CCCN1c1nc(Nc2cc(C3CC3)n[nH]2)c2cccn2n1 [BMS-754807],comparable to that in the negative control group (DMSO alone)
3,C[C@@H](Oc1cc(-c2cnn(C3CCNCC3)c2)cnc1N)c1c(Cl)ccc(F)c1Cl [Crizotinib],comparable to that in the negative control group (DMSO alone)

# Same assay, conditions: 10 pM recombinant rat agrin, inhibitor (3 nM) added simultaneously, 20 hours; presumed
row,Compound,MuSK inhibitory effects
1,COc1cc2c(Oc3ccc(NC(=O)C4(C(=O)Nc5ccc(F)cc5)CC4)cc3F)ccnc2cc1OCCCN1CCOCC1 [Foretinib],weaker MuSK inhibitory effects compared with AST-487
2,CNC(=O)c1cc(Oc2ccc(NC(=O)Nc3ccc(Cl)c(C(F)(F)F)c3)cc2)ccn1 [Sorafenib],weaker MuSK inhibitory effects compared with AST-487
